Assay results: US6673938B1, “Substituted pyridine herbicides” (Syngenta Participations AG, priority 1998, dated 2004)

Tests used:
[1] = system: Monocotyledonous and dicotyledonous test plants; assay: Post-emergence herbicidal action; type: in vivo; settings: evaluated after approximately 18 days; for Post-emergence action, Ipomoea / Post-emergence action, Lolium / Post-emergence action, Setaria / Post-emergence action, Sinapis / Post-emergence action, Solanum / Post-emergence action, Stellaria: 2000 g/ha, sprayed in 4- to 6-leaf stage, nine-step scale; for Post-emergence action: Abutilon (score, nine-step scale) / Post-emergence action: Chenop. (score, nine-step scale) / Post-emergence action: Digitaria (score, nine-step scale) / Post-emergence action: Echino. (score, nine-step scale) / Post-emergence action: Ipopur. (score, nine-step scale) / Post-emergence action: Panicum (score, nine-step scale) / Post-emergence action: Xanth. (score, nine-step scale): 250 g/ha, sprayed at 4- to 6-leaf stage
Method in brief: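 Scoring uses a 1–9 scale (1 complete damage, 9 no effect), read roughly 18 days post-application. Compounds were applied post-emergence at 4–6 leaves, as aqueous suspension (25% wettable powder) or emulsion (25% emulsion concentrate), at 250 g or 2 kg a.i./ha in 500 l water/ha.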

[2] = system: Monocotyledonous and dicotyledonous test plants; assay: Herbicidal action before emergence of the plants (pre-emergence action); type: in vivo; settings: evaluated after 3 weeks, nine-step scale; for pre-emergence action, Cyperus / pre-emergence action, Ipomoea / pre-emergence action, Setaria / pre-emergence action, Sinapis / pre-emergence action, Solanum / pre-emergence action, Stellaria: 2000 g/ha; for Pre-emergence action, Abutilon / Pre-emergence action, Amaranthus / Pre-emergence action, Chenop. / Pre-emergence action, Digitaria / Pre-emergence action, Echino. / Pre-emergence action, Panicum: 250 g/ha
Method in brief: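 Sprayed onto soil immediately after sowing as WP suspension or EC emulsion at 2 kg or 250 g a.i./ha (500 l water/ha). Greenhouse growth for 3 weeks, then scored on a nine-step scale (1 = complete damage, 9 = no effect).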

| melting point | SMILES | Post-emergence action, Ipomoea [1] | Post-emergence action, Lolium [1] | Post-emergence action, Setaria [1] | Post-emergence action, Sinapis [1] | Post-emergence action, Solanum [1] | Post-emergence action, Stellaria [1] | pre-emergence action, Cyperus [2] | pre-emergence action, Ipomoea [2] | pre-emergence action, Setaria [2] | pre-emergence action, Sinapis [2] | pre-emergence action, Solanum [2] | pre-emergence action, Stellaria [2] | also measured |
| --- | --- | --- | --- | --- | --- | --- | --- | --- | --- | --- | --- | --- | --- | --- |
| 75 to 76 °C | Cc1nc(C(F)(F)F)ccc1C(=O)C1=C(O)C(C)(C)CCC1=O [Compound A2-B24, 3-Hydroxy-4,4-dimethyl-2-(2-methyl-6-trifluoromethylpyridine-3-carbonyl)cyclohex-2-enone] | 1 | 2 | 2 | 1 | 2 | 2 | 1 | 1 | 1 | 2 | 1 | 1 |  |
| 165 to 167 °C | Cc1nc(C(F)(F)F)ccc1C(=O)C1=C(S(=O)(=O)c2ccccc2)CCCC1=O [Compound A2-B1104, 3-Benzenesulfonyl-2-(2-methyl-6-trifluoromethylpyridine-3-carbonyl)cyclohex-2-enone] |  |  |  |  |  |  |  |  |  |  |  |  |  |
| 108 to 110 °C | COC(=O)C1(C)CCC(=O)C(C(=O)c2ccc(C(F)(F)Cl)nc2C)=C1O (centres unmarked) [Compound A94-B34, methyl 3-[6-(chlorodifluoromethyl)-2-methylpyridine-3-carbonyl]-2-hydroxy-1-methyl-4-oxocyclohex-2-enecarboxylate] |  |  |  |  |  |  |  |  |  |  |  |  |  |
| 124 to 125 °C | Cc1nc(C(F)(F)F)ccc1C(=O)C1=C(Sc2ccccc2)CCCC1=O [Compound A2-B1102, 2-(2-methyl-6-trifluoromethylpyridine-3-carbonyl)-3-phenylsulfanylcyclohex-2-enone] |  |  |  |  |  |  |  |  |  |  |  |  |  |
| 94.5 to 95 °C | CC1(C)C(=O)C(C(=O)c2ccc(C(F)(F)F)nc2CBr)=C(Cl)C(C)(C)C1=O [Compound A1029-B1105, 4-(2-Bromomethyl-6-trifluoromethylpyridine-3-carbonyl)-5-chloro-2,2,6,6-tetramethylcyclohex-4-ene-1,3-dione] |  |  |  |  |  |  |  |  |  |  |  |  |  |
|  | Cc1nc(C(F)(F)F)ccc1C(=O)C1=C(O)C(C)(C)CC(C)C1=O (centres unmarked) [Compound A2-B68] | 1 | 2 | 2 | 1 | 1 | 2 | 1 | 2 | 1 | 2 | 1 | 2 |  |
| 119 °C | Cc1nc(C(F)(F)F)ccc1C(=O)C1=C(Cl)C(C)(C)C(=O)C(C)(C)C1=O [Compound A2-B1105, 5-Chloro-2,2,6,6-tetramethyl-4-(2-methyl-6-trifluoromethylpyridine-3-carbonyl)cyclohex-4-ene-1,3-dione] |  |  |  |  |  |  |  |  |  |  |  |  |  |
|  | CCOC(=O)C1C(O)=C(C(=O)c2ccc(C(F)(F)F)nc2C)C(=O)CC1C (centres unmarked) [Compound A2-B145] |  |  |  |  |  |  |  |  |  |  |  |  | Post-emergence action: Abutilon (score, nine-step scale) [1]: 3; Post-emergence action: Chenop. (score, nine-step scale) [1]: 1; Post-emergence action: Digitaria (score, nine-step scale) [1]: 2; Post-emergence action: Echino. (score, nine-step scale) [1]: 2; Post-emergence action: Ipopur. (score, nine-step scale) [1]: 3; Post-emergence action: Panicum (score, nine-step scale) [1]: 2; Post-emergence action: Xanth. (score, nine-step scale) [1]: 3; Pre-emergence action, Abutilon [2]: 2; Pre-emergence action, Amaranthus [2]: 3; Pre-emergence action, Chenop. [2]: 1; Pre-emergence action, Digitaria [2]: 2; Pre-emergence action, Echino. [2]: 4; Pre-emergence action, Panicum [2]: 2 |
|  | CCc1nc(C(F)(F)F)ccc1C(=O)C1=C(O)C(C)(C)CCC1=O [Compound A3-B24] | 2 | 2 | 2 | 1 | 2 | 2 | 1 | 3 | 2 | 2 | 1 | 2 |  |
|  | Cc1nc(C(F)(F)F)ccc1C(=O)C1=C(O)C(C)CC(C)C1=O (stereo not drawn) [A2-B46 (cis)] | 1 | 2 | 3 | 1 | 2 | 2 | 1 | 2 | 1 | 2 | 1 | 2 |  |
|  | COCc1nc(C(F)(F)F)ccc1C(=O)C1=C(O)CC(C(F)(F)F)CC1=O (centres unmarked) [Compound A8-B1064] | 2 | 4 | 2 | 1 | 1 | 2 | 2 | 4 | 3 | 2 | 1 | 3 |  |
|  | Cc1c(C(=O)C2=C(Cl)C(C)(C)C(=O)C(C)(C)C2=O)ccc(C(F)(F)F)[n+]1[O-] [Compound A1210-B1105, 5-Chloro-2,2,6,6-tetramethyl-4-(2-methyl-1-oxy-6-trifluoromethylpyridine-3-carbonyl)cyclohex-4-ene-1,3-dione] |  |  |  |  |  |  |  |  |  |  |  |  | Post-emergence action: Abutilon (score, nine-step scale) [1]: 2; Post-emergence action: Chenop. (score, nine-step scale) [1]: 1; Post-emergence action: Digitaria (score, nine-step scale) [1]: 2; Post-emergence action: Echino. (score, nine-step scale) [1]: 3; Post-emergence action: Ipopur. (score, nine-step scale) [1]: 2; Post-emergence action: Panicum (score, nine-step scale) [1]: 1; Post-emergence action: Xanth. (score, nine-step scale) [1]: 2; Pre-emergence action, Abutilon [2]: 1; Pre-emergence action, Amaranthus [2]: 4; Pre-emergence action, Chenop. [2]: 1; Pre-emergence action, Digitaria [2]: 3; Pre-emergence action, Echino. [2]: 2; Pre-emergence action, Panicum [2]: 2 |
|  | C#CCC1CC(C)(C)C(=O)C(C(=O)c2ccc(C(F)(F)F)nc2C)=C1O (centres unmarked) [Compound A2-B1082] | 1 | 2 | 2 | 1 | 1 | 2 | 2 | 2 | 2 | 2 | 1 | 2 |  |
|  | Cc1nc(C(F)(F)F)ccc1C(=O)C1=C(O)C(C)(C)CC(C)(C)C1=O [Compound A2-B90] | 1 | 2 | 2 | 1 | 2 | 2 | 1 | 1 | 1 | 1 | 1 | 1 |  |
|  | COC1CCC(=O)C(C(=O)c2ccc(C(F)(F)F)nc2C)=C1O (centres unmarked) [Compound A2-B1068] | 1 | 2 | 4 | 1 | 1 | 2 | 2 | 2 | 2 | 2 | 1 | 2 |  |
